# Data as given in patent US7226947B1, “Use of creatine as a fat substitute” (AlzChem Trostberg GmbH, priority 1999, dated 2007).
# Tested on: growing hens
# Test: Effect of addition of creatine in the feed for growing hens
# Type: in vivo
# Details: 0.2% creatine (0.2 g/kg) added to air-dried feed, growing period of 41 days
# Description: The effect of addition of creatine in the feed for growing hens was studied. It was found here that by adding 0.2% creatine […] to the air-dried feed for a growing period of 41 days, an increase in the final weight of 4% compared with previous feeding methods (without creatine addition) was achieved. […] The feed consumption decreased here by about 2–3% in comparison with previous feeding methods.
structure (smiles),measurement,value
CN(CC(=O)O)C(=N)N [creatine],decrease in feed consumption in comparison with previous feeding methods,2–3%
same,increase in the final weight compared with previous feeding methods (without creatine addition),4%
same,meat quality,improved quality
same,nature of the increase in weight (meat vs fat; lean body mass index),"only by increase in meat, but not by increase in fat"
